Results as given in publication PMC6631349 (Xenobiotica; the fate of foreign compounds in biological …, 2014).

Assays:
[1] = molecular target: T1, UGT2B4 (Homo sapiens, UniProt P06133); test: UGT2B4 supersomes-catalyzed 4-MU glucuronidation inhibition; conditions: 50 μM PC components; recombinant human UGT; mean of triplicate
T1 sequence (P06133 24-528): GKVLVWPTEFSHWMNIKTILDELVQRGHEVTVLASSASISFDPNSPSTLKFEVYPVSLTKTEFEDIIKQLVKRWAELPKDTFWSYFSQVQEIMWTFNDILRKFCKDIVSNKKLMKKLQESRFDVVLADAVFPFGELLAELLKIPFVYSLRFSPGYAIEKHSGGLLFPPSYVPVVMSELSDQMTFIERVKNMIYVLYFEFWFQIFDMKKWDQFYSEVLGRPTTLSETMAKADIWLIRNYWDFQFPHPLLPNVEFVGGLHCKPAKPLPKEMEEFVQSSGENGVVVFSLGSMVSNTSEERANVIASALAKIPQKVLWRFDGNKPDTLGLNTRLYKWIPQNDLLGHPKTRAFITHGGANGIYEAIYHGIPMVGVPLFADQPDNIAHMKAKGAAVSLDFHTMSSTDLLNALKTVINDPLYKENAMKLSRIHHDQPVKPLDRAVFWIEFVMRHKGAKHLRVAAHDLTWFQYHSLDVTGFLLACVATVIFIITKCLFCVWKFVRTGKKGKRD

[2] = molecular target: T2, UGT1A1 (Homo sapiens, UniProt P22309); test: UGT1A1 supersomes-catalyzed 4-MU glucuronidation inhibition; conditions: 50 μM PC components; recombinant human UGT; mean of triplicate
T2 sequence (P22309 26-533): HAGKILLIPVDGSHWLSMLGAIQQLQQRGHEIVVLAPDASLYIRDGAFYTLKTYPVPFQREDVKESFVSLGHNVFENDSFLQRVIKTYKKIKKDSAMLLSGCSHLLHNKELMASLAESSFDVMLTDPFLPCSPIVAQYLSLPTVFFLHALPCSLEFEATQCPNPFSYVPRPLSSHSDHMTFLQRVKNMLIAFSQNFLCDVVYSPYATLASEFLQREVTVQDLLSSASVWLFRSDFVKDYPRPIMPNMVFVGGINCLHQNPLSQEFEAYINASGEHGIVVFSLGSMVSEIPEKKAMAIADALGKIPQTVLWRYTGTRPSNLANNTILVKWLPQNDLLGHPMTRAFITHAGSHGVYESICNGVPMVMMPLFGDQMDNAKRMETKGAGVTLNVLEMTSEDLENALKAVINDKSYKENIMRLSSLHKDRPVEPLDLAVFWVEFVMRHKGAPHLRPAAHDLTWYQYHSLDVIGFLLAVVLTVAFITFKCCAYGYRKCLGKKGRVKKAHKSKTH

[3] = molecular target: T3, UGT1A9 (Homo sapiens, UniProt O60656); test: UGT1A9 supersomes-catalyzed 4-MU glucuronidation inhibition; conditions: 50 μM PC components; recombinant human UGT; mean of triplicate
T3 sequence (O60656 26-530): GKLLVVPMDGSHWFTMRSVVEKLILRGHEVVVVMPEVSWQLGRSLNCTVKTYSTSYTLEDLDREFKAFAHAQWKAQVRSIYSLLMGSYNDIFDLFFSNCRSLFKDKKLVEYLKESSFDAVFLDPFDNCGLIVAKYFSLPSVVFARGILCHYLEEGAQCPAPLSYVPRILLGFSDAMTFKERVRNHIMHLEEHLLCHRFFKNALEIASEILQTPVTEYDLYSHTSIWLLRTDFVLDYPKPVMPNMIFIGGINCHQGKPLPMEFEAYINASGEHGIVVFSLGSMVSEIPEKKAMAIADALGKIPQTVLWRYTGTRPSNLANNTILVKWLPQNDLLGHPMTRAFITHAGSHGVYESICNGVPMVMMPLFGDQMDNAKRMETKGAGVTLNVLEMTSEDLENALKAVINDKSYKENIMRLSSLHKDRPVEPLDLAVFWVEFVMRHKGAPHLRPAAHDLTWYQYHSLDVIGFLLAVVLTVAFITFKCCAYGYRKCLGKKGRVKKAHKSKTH

[4] = molecular target: T4, UGT2B7 (Homo sapiens, UniProt P16662); test: UGT2B7 supersomes-catalyzed 4-MU glucuronidation inhibition; conditions: for residual activity 2B7: 50 μM PC components, recombinant human UGT, mean of triplicate
T4 sequence (P16662 24-529): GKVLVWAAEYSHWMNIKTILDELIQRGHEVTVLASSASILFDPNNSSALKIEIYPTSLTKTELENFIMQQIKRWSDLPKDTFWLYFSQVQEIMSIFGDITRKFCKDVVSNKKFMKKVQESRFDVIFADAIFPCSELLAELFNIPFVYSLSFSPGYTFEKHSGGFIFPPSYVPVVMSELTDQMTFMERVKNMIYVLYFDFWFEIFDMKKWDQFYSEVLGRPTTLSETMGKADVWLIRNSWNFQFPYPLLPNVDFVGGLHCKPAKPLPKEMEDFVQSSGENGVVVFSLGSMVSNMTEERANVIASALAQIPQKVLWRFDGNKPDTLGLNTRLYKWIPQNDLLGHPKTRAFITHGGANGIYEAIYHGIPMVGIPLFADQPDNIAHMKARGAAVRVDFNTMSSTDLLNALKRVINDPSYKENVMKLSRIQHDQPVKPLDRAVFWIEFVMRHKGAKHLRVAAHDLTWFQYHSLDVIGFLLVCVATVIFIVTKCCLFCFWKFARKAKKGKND

[5] = molecular target: T5, UGT1A8 (Homo sapiens, UniProt Q9HAW9); conditions: 50 μM PC components; recombinant human UGT; mean of triplicate
T5 sequence (Q9HAW9 26-530): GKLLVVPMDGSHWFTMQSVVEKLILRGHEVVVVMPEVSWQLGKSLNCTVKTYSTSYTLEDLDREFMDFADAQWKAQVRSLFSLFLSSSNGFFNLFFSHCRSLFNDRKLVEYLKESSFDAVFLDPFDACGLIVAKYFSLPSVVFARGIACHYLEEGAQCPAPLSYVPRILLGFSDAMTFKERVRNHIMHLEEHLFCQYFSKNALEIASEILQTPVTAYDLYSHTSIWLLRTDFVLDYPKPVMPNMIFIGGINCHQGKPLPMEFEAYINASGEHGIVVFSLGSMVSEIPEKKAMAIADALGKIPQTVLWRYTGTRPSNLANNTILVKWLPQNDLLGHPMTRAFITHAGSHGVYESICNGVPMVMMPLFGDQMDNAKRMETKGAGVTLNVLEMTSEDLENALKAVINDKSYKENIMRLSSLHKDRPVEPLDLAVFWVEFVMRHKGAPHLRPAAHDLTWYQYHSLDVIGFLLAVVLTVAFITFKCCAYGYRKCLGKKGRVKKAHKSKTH

Row | residual activity 2B4 [1] | residual activity 1A1 [2] | residual activity 1A9 [3] | residual activity 2B7 [4] | residual activity 1A8 [5] | inhibition percentage of UGT2B7 activity ([4]; 50 μM) | SMILES
1 | 179.0% | 208.9% | 86.3% | 66.1% | 110.2% |  | CCCCCCCCCCCCCC(=O)OC[C@H](COP(=O)([O-])OCC[N+](C)(C)C)OC(=O)CCCCCCCCCCCCC [PC 14:0, 14:0]
2 | 191.3% | 210.1% | 64.7% | 51.7% | 105.9% |  | CCCCCCCCCCCCCCC(=O)OC[C@H](COP(=O)([O-])OCC[N+](C)(C)C)OC(=O)CCCCCCCCCCCCCC [PC 15:0, 15:0]
3 | 185.1% | 192.6% | 67.5% | 60.3% | 107.6% |  | CCCCCCCCCCCCCCCC(=O)OC[C@H](COP(=O)([O-])OCC[N+](C)(C)C)OC(=O)CCCCCCCCCCCCCCC [PC 16:0, 16:0]
4 | 175.4% | 192.3% | 65.7% | 35.5% | 92.1% |  | CCCCCCCCCCCCCCCCC(=O)OC[C@H](COP(=O)([O-])OCC[N+](C)(C)C)OC(=O)CCCCCCCCCCCCCCCC [PC 17:0, 17:0]
5 | 93.4% | 208.2% | 67.7% | 36.0% | 84.1% |  | CCCCCCCCCCCCCCCCCC(=O)OC[C@H](COP(=O)([O-])OCC[N+](C)(C)C)OC(=O)CCCCCCCCCCCCCCCCC [PC 18:0, 18:0]
6 | 83.4% | 184.9% | 42.3% | 23.1% | 60.6% | 76.9% | CCCCCCCCCCCCCCCCCCC(=O)OC[C@H](COP(=O)([O-])OCC[N+](C)(C)C)OC(=O)CCCCCCCCCCCCCCCCCC [PC 19:0, 19:0]
7 | 79.5% | 202.3% | 65.6% | 88.9% | 94.9% |  | CCCCCCCCCCCCCCCCCCCC(=O)OC[C@H](COP(=O)([O-])OCC[N+](C)(C)C)OC(=O)CCCCCCCCCCCCCCCCCCC [PC 20:0, 20:0]
8 | 80.3% | 185.2% | 38.1% | 26.2% | 36.9% |  | CCCCCCCCCCCCCCCCCCCCC(=O)OC[C@H](COP(=O)([O-])OCC[N+](C)(C)C)OC(=O)CCCCCCCCCCCCCCCCCCCC [PC 21:0, 21:0]
9 | 60.0% | 170.3% | 43.9% | 33.0% | 38.0% |  | CCCCCCCCCCCCCCCCCCCCCC(=O)OC[C@H](COP(=O)([O-])OCC[N+](C)(C)C)OC(=O)CCCCCCCCCCCCCCCCCCCCC [PC 22:0, 22:0]
10 | 168.3% | 133.7% | 77.3% | 69.5% | 93.5% |  | CCCCCCCCCCCCCCCCCCCCCCC(=O)OC[C@H](COP(=O)([O-])OCC[N+](C)(C)C)OC(=O)CCCCCCCCCCCCCCCCCCCCCC [PC 23:0, 23:0]

Row | SMILES | residual activity 2B4 [1] | residual activity 1A1 [2] | residual activity 1A9 [3] | residual activity 2B7 [4] | residual activity 1A8 [5] | inhibition percentage of UGT2B7 activity ([4]; 50 μM)
11 | CC/C=C\C/C=C\C/C=C\C/C=C\C/C=C\C/C=C\CCC(=O)O[C@H](COC(=O)CCCCCCCCCCCCCCCCC)COP(=O)([O-])OCC[N+](C)(C)C [PC 18:0, 22:6, 1-stearoyl-2-docosahexaenoyl-sn-glycero-3-phosphocholine] | 183.2% | 186.6% | 94.4% | 73.6% | 116.1% | 
